In paper PMC7782499, “Progerinin, an optimized progerin-lamin A binding inhibitor, ameliorates premature senescence phenotypes of Hutchinson-Gilford progeria syndrome” (Communications Biology, 2021):
Where “and” joins values, the source holds several entries; their conditions need not be identical. Equal values may be shown once.

Experiments:
[1] = Plasma stability, human; type: in vitro ADME
Method: For PK analysis, 5 mg/kg of JH4 in 10% DMSO, 5% […] solution were intravenously injected and 10 mg/kg of JH4 in 10% NMP and 90% PEG400 solution were orally delivered. At pre-set time-points, blood concentration of JH4 was determined by LC-MS/MS analysis[22],[23]. Other chemicals were also tested using similar protocol. In vitro ADME studies (plasma protein binding, CYP inhibition, microsomal stability, plasma stability, and hERG inhibition) were performed by New Drug Development Center (Daegu, Korea) using standard protocols[24],[25].

[2] = biological target: T1, progerin (Homo sapiens, UniProt P02545); experiment: Progerin expression in HGPS patient cells (western blot, immunostaining); type: cell-based; design: host or cells: HGPS patient fibroblasts; details: for Progerin intensity after treatment with chemicals, Ave: average; for Progerin intensity after treatment with chemicals: single replicates;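 as to Progerin intensity after treatment with chemicals, Ave: treatment time 7 days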;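 as to Progerin intensity after treatment with chemicals: treatment time 7 days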
T1 sequence (P02545 1-614 isoform P02545-6): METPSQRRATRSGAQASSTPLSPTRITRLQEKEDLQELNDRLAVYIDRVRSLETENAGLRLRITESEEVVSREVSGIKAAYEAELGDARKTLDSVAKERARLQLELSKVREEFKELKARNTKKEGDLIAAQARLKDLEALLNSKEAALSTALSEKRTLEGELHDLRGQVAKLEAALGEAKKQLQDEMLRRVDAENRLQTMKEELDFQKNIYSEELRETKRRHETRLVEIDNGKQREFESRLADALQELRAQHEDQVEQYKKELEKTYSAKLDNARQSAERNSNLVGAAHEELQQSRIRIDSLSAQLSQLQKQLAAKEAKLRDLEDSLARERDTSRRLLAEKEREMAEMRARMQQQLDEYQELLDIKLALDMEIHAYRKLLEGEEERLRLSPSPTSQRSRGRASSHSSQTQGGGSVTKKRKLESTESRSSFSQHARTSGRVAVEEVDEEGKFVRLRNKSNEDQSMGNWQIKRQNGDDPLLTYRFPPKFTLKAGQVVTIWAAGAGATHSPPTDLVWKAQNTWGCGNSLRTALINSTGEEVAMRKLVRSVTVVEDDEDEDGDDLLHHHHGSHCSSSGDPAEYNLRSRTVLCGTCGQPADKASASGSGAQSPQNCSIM
Method: Fig. 1 SLC-D011 ameliorates premature aging features of HGPS. A. HEK293 cells were transiently transfected with expression vector encoding wild-type lamin A (WT-LA), lamin A-C661A (LA-C661A), progerin, or progerin-C611A. LA-C661A or progerin-C611A with point mutation in CaaX motif was predicted to be lack of farnesylation, […] that of authentic WT-LA or progerin. GFP-conjugated empty expression vector was used as a negative control. Cells were visualized at 24 h after transfection. B Transient transfection of HEK293 cells with expression vector encoding progerin or progerin-G611A leads to reduced expression of H3K9me3 (n = 3 independent experiments; two-tailed Student’s t test). C. JH4 derivatives (JH010 and SLC-D011(D011)) inhibit lamin A and progerin interaction. For binding inhibition assay, bead-conjugated lamin A (GST-LA) was incubated with HEK293 cells, transiently transfected with GFP-progerin (PG), and treated with indicated chemicals. Actin was used as a loading control. PPT, co-precipitated materials with recombinant proteins; Sup supernatant. 5 μM of each chemical was used for binding assay. […] H3K9me3 reduction is a well-known marker for premature aged cells. Thus, H3K9me3 expression was evaluated by immunostaining. […] E SLC-D011 obviously suppresses progerin expression. […] F SLC-D011 reduces the expression of progerin in other HGPS cells (AG11513 and AG11498, Coriell Cell Repositories). […] G JH4, JH010, and SLC-D011 promote cell proliferation. Cell viability was determined by MTT assay after incubation with chemicals for 7 days (n = 3 independent experiments; two-tailed Student’s t test). H JH4, JH010, and SLC-D011 show similar activity for ameliorating nuclear deformation. After incubation with chemicals for 7 days, cells were stained with progerin and H3K9me3 antibodies (n = 3 independent experiment; two-tailed Student’s t test), **p < 0.001. Data are reported as mean ± SD. “Con” means Dimethyl sulfoxide (DMSO)-treated control. The data are normalized to DMSO-treated cells.
Protein was extracted from cells using a radioimmunoprecipitation assay (RIPA) buffer (50 mM Tris-Cl, pH 7.5, 150 mM NaCl, 1% NP-40, 0.1% SDS, and 10% sodium deoxycholate). Samples were separated by sodium dodecyl sulfate-polyacrylamide gel electrophoresis (SDS-PAGE) and transferred to polyvinylidene difluoride (PVDF) membranes. Blotted membranes were blocked with 3% skimmed milk in TBS-T buffer (20 mM Tris pH 7.6, 150 mM NaCl, and 0.05% Tween 20) for 1 h followed by incubation with specific primary antibodies. Horseradish peroxidase (HRP)-conjugated goat anti-mouse, goat anti-rabbit, and mouse anti-goat IgG antibodies (Pierce, Thermo Fisher Scientific, Inc., Rockford, IL, USA) were used as secondary antibodies. Peroxidase activity was detected by chemiluminescence using an ECL kit (Intron, Seoul, Korea) following the manufacturer’s instructions. Bands were quantified using Image J software (National Institute of Health, NIH).
Cells were cultured on coverslips, washed with PBS, fixed with 4% paraformaldehyde (PFA) for 30 min at RT, and then permeabilized with 0.2% Triton X-100 at RT for 5 min. After treatment with blocking solution (anti-Human antibody diluted 1:400 in PBS) for 1 h, cells were incubated with anti-lamin A/C (1:400), anti-progerin (1:100), Ki67 (1:200), and anti-H3K9me3 (1:200) in blocking buffer overnight at 4 °C. Finally, cells were incubated with fluorescein isothiocyanate and rhodamine-conjugated secondary antibodies at 4 °C for 7 h. Nuclei were stained with DAPI (4, 6-diamidino-2-phenylindole) at RT for 10 min. After cells were washed three times with PBS, coverslips were mounted with mounting solution (H-5501; Vector Laboratories, Burlingame, CA, USA). Immunofluorescence signal was detected with a fluorescence microscopy (Zeiss and Logos).
Fig. S7. Therapeutic effect of SLC-D011 at a low concentration. […]
AG11513; B) dose-dependently. […]

CC1(C)Oc2cc3oc(=O)ccc3cc2C[C@@H]1OC/C=C/c1ccccc1 [SLC-D011]
remaining at 0.5 h ([1]; 30min): > 100% | remaining at 2 h ([1]; 120min): > 100% | Progerin intensity after treatment with SLC-D011, Ave ([2]; AG03198, 10nM, average (Fig S7C)): 7.117 AU | Progerin intensity after treatment with SLC-D011 ([2]; AG03198, 10nM, single replicates (Fig S7C)): 5.32 AU and 7.51 AU and 8.52 AU | Progerin intensity after treatment with SLC-D011, Ave ([2]; AG03198, 50nM, average (Fig S7C)): 3.183 AU | Progerin intensity after treatment with SLC-D011 ([2]; AG03198, 50nM, single replicates (Fig S7C)): 2.38 AU and 3.11 AU and 4.06 AU | Progerin intensity after treatment with SLC-D011, Ave ([2]; AG03198, 100nM, average (Fig S7C)): 1.91 AU | Progerin intensity after treatment with SLC-D011 ([2]; AG03198, 100nM, single replicates (Fig S7C)): 2.22 AU and 1.69 AU and 1.82 AU | Progerin intensity after treatment with SLC-D011, Ave ([2]; AG03198, 500nM, average (Fig S7C)): 1.503 AU | Progerin intensity after treatment with SLC-D011 ([2]; AG03198, 500nM, single replicates (Fig S7C)): 2.58 AU and 0.9 AU and 1.03 AU | Progerin intensity after treatment with SLC-D011, Ave ([2]; AG03198, 1μM, average (Fig S7C)): 0.68 AU | Progerin intensity after treatment with SLC-D011 ([2]; AG03198, 1μM, single replicates (Fig S7C)): 1.32 AU and 0.45 AU and 0.27 AU | Progerin intensity after treatment with chemicals, Ave ([2]; AG03198, 2μM): 1.893 AU | Progerin intensity after treatment with SLC-D011, Ave ([2]; AG03198, 2μM, average (Fig S7C)): 0.14 AU | Progerin intensity after treatment with chemicals ([2]; AG03198, 2μM): 1.798 AU and 1.397 AU and 2.484 AU | Progerin intensity after treatment with SLC-D011 ([2]; AG03198, 2μM, single replicates (Fig S7C)): 0 AU and 0.23 AU and 0.19 AU | Progerin intensity after treatment with chemicals, Ave ([2]; AG03198, 5μM): 0.1657 AU | Progerin intensity after treatment with SLC-D011, Ave ([2]; AG03198, 5μM, average (Fig S7C)): 0.02333 AU | Progerin intensity after treatment with chemicals ([2]; AG03198, 5μM): 0 AU and 0.123 AU and 0.3741 AU | Progerin intensity after treatment with SLC-D011 ([2]; AG03198, 5μM, single replicates (Fig S7C)): 0 AU (2×) and 0.07 AU | Progerin intensity after treatment with SLC-D011, Ave ([2]; AG11498, 10nM, average (Fig S7C)): 6.647 AU | Progerin intensity after treatment with SLC-D011 ([2]; AG11498, 10nM, single replicates (Fig S7C)): 6.56 AU and 6.24 AU and 7.14 AU | Progerin intensity after treatment with SLC-D011, Ave ([2]; AG11498, 50nM, average (Fig S7C)): 4.11 AU | Progerin intensity after treatment with SLC-D011 ([2]; AG11498, 50nM, single replicates (Fig S7C)): 2.38 AU and 3.5 AU and 6.45 AU | Progerin intensity after treatment with SLC-D011, Ave ([2]; AG11498, 100nM, average (Fig S7C)): 1.733 AU | Progerin intensity after treatment with SLC-D011 ([2]; AG11498, 100nM, single replicates (Fig S7C)): 0 AU and 1.5 AU and 3.7 AU | Progerin intensity after treatment with SLC-D011, Ave ([2]; AG11498, 500nM, average (Fig S7C)): 0.9 AU | Progerin intensity after treatment with SLC-D011 ([2]; AG11498, 500nM, single replicates (Fig S7C)): 0 AU and 0.6 AU and 2.1 AU | Progerin intensity after treatment with SLC-D011, Ave ([2]; AG11498, 1μM, average (Fig S7C)): 0.4533 AU | Progerin intensity after treatment with SLC-D011 ([2]; AG11498, 1μM, single replicates (Fig S7C)): 0 AU (2×) and 1.36 AU | Progerin intensity after treatment with SLC-D011, Ave ([2]; AG11498, 2μM, average (Fig S7C)): 0.3333 AU | Progerin intensity after treatment with SLC-D011 ([2]; AG11498, 2μM, single replicates (Fig S7C)): 0 AU (2×) and 1 AU | Progerin intensity after treatment with SLC-D011, Ave ([2]; AG11498, 5μM, average (Fig S7C)): 0.25 AU | Progerin intensity after treatment with SLC-D011 ([2]; AG11498, 5μM, single replicates (Fig S7C)): 0 AU (2×) and 0.75 AU | Progerin intensity after treatment with SLC-D011, Ave ([2]; AG11498, average (Fig S3H)): 1.892 AU | Progerin intensity after treatment with SLC-D011 ([2]; AG11498, single replicates (Fig S3H)): 5.217 AU and 0.1632 AU and 0.2958 AU | Progerin intensity after treatment with SLC-D011, Ave ([2]; AG11513, 10nM, average (Fig S7C)): 5.123 AU | Progerin intensity after treatment with SLC-D011 ([2]; AG11513, 10nM, single replicates (Fig S7C)): 2.96 AU and 6.48 AU and 5.93 AU | Progerin intensity after treatment with SLC-D011, Ave ([2]; AG11513, 50nM, average (Fig S7C)): 3.793 AU | Progerin intensity after treatment with SLC-D011 ([2]; AG11513, 50nM, single replicates (Fig S7C)): 3.06 AU and 4.3 AU and 4.02 AU | Progerin intensity after treatment with SLC-D011, Ave ([2]; AG11513, 100nM, average (Fig S7C)): 2.487 AU | Progerin intensity after treatment with SLC-D011 ([2]; AG11513, 100nM, single replicates (Fig S7C)): 2.07 AU and 2.27 AU and 3.12 AU | Progerin intensity after treatment with SLC-D011, Ave ([2]; AG11513, 500nM, average (Fig S7C)): 1.19 AU | Progerin intensity after treatment with SLC-D011 ([2]; AG11513, 500nM, single replicates (Fig S7C)): 0.81 AU and 1.08 AU and 1.68 AU | Progerin intensity after treatment with SLC-D011, Ave ([2]; AG11513, 1μM, average (Fig S7C)): 0.59 AU | Progerin intensity after treatment with SLC-D011 ([2]; AG11513, 1μM, single replicates (Fig S7C)): 0.55 AU and 0.6 AU and 0.62 AU | Progerin intensity after treatment with SLC-D011, Ave ([2]; AG11513, 2μM, average (Fig S7C)): 0.2167 AU | Progerin intensity after treatment with SLC-D011 ([2]; AG11513, 2μM, single replicates (Fig S7C)): 0.27 AU and 0.22 AU and 0.16 AU | Progerin intensity after treatment with SLC-D011, Ave ([2]; AG11513, 5μM, average (Fig S7C)): 0.09 AU | Progerin intensity after treatment with SLC-D011 ([2]; AG11513, 5μM, single replicates (Fig S7C)): 0.2 AU and 0 AU and 0.07 AU | Progerin intensity after treatment with SLC-D011, Ave ([2]; AG11513, average (Fig S3H)): 1.455 AU | Progerin intensity after treatment with SLC-D011 ([2]; AG11513, single replicates (Fig S3H)): 1.494 AU and 1.1106 AU and 1.761 AU | Concentration enough for eliminating progerin ([2]; HGPS cells): 100 nM | Effect on progerin expression ([2]; HGPS cells): reduce progerin expression | Progerin intensity after treatment with SLC-D011, Ave ([2]; N9, average (Fig S3H)): 0 AU | Progerin intensity after treatment with SLC-D011 ([2]; N9, single replicates (Fig S3H)): 0 AU

CC1(C)Oc2cc3oc(=O)ccc3cc2CC1OC(=O)C=Cc1cccnc1 (stereo not drawn) [JH4]
Progerin intensity after treatment with chemicals, Ave ([2]; AG03198, 2μM): 15.1057 AU | Progerin intensity after treatment with chemicals ([2]; AG03198, 2μM): 13.2274 AU and 13.4377 AU and 18.652 AU | Progerin intensity after treatment with chemicals, Ave ([2]; AG03198, 5μM): 4.247 AU | Progerin intensity after treatment with chemicals ([2]; AG03198, 5μM): 1.2854 AU and 1.491 AU and 9.966 AU
